In patent publication US20190116833A1, “FEED ADDITIVE COMPOSITIONS” (priority 2017, published 2019):
Marks after values point to notes of the source that are not given here.

How the values were obtained:
[1] = Growth performance of early weaned pigs, SMBS titration (Example 3); type: in vivo; settings: in words
Text: A total of 1,296 weanling pigs were used to determine the impact of […] on growth performance in 19 to 20 day old pigs. The ratio of same-sow source pens was equalized within treatments. The number of barrows and gilts was balanced within the pen (either 13 […] or 14 […] per pen). Upon arrival weanling pigs were sorted to pens (48 pens with 27 pigs per pen) and weighed as a complete pen of pigs. Pens within block were randomly assigned to one of 4 dietary treatments (1 control and 3 experimental diets; Table 6) in a randomized complete block design. Diets containing testing products were made by mixing the testing products into the basal diet (Table 7).
Pig weights were taken at placement and at the end of each diet phase (day 9 and 23). Feed weights were collected daily and the data was used to calculate ADG, ADFI and F/G for both diet phases and for the entire experimental period (23 days). Blood samples were on day 0 and 23 of the study from one barrow in each pen. Each pen was selected at the beginning of the study, identified with an ear tag, and sampled again at the end of the study. 8.5 mL blood was collected and allowed to clot on ice for at least 1.5 hr and centrifuged at 2,000×g for 13 min (4° C.). Fecal scores for each pen were collected on d 3, 5, 7, and 10 using the following scale: 0=none; 1=mild; 2=substantial; 3=severe (Citation 1: Marquardt et al., 1999).

[2] = Post-weaning pig growth performance, SMBS vs SMBS + formulated yeast, 2-phase feeding (Example 7); type: in vivo
Text: A total of 972 pigs were used to determine the effect of sodium metabisulfite (SMBS) or SMBS plus formulated yeast on weanling pig growth performance. Upon arrival pigs were sorted to pens with 27 pigs per pen. Pigs were weighed on pen basis. Pens within block were randomly assigned to one of 3 dietary treatments (1 control and 2 experimental diets; Table 17) in a randomized complete block design. This will result in 12 pens for each treatment for evaluation of growth performance, fecal scores, and health status.
This experiment was conducted for approximately 22 days in a 2-phase feeding program (Table 18) immediately after weaning. Feed was provided through the FeedLogic® system allowing collection of feed intake data by pen.

O=S([O-])S(=O)(=O)[O-].[Na+].[Na+] [SMBS, sodium metabisulfite]
ADG and F/G ([1]; increasing levels, both phases of the study): linear (P<0.05) improvements
ADG ([1]; titrating from 0 to 10 lb/ton): Linear increase
F/G ([1]; titrating from 0 to 10 lb/ton): Linear decrease
ADFI ([2]; Phase 1 + 2, 22 days): 0.78^cd lb/day
ADG ([2]; Phase 1 + 2, 22 days): 0.54 lb/day
ADG, change versus Control ([2]; Phase 1 + 2, 22 days): (+10.2%)^b
F:G ([2]; Phase 1 + 2, 22 days): 1.45
F:G, change versus Control ([2]; Phase 1 + 2, 22 days): (−6.5%)^b
Mortality ([2]; Phase 1 + 2, 22 days): 0.6%
Total removal ([2]; Phase 1 + 2, 22 days): 2.2%
ADFI ([2]; Phase 1, 8 days): 0.46 lb/day
ADG ([2]; Phase 1, 8 days): 0.16^d lb/day
G:F ([2]; Phase 1, 8 days): 0.35^d
ADFI ([2]; Phase 2, 14 days): 0.96^ab lb/day
ADG ([2]; Phase 2, 14 days): 0.76^b lb/day
F:G ([2]; Phase 2, 14 days): 1.27^b
BW end of Phase 1 ([2]; end of Phase 1, 8 days): 13.4 lb
BW end of Phase 2 ([2]; end of Phase 2, 14 days): 24.1^b lb
Start BW ([2]; start of experiment (baseline)): 11.8 lb
